We go through two compounds from patent US8962664B2, “Selective glycosidase inhibitors and uses thereof” (Simon Fraser University, priority 2006, dated 2015).

“And” between values parts separate entries of the source, which are not always exact repeats. Identical values can stand only once. “Also recorded” adds a separate entry of the source.

Holding throughout (format): in vivo, Sprague-Dawley rats
The nature of data set [1]: Eight-month repeat dose toxicology study in rats: general observations and organ weights. As for the experimental part:
(§1) The toxicological effects of repeated oral administration of (3aR,5R,6S,7R,7aR)-5-(hydroxymethyl)-2-propyl-5,6,7,7a-tetrahydro-3aH-pyrano[3,2-d]thiazole-6,7-diol (NAG-Bt) to Sprague-Dawley rats over eight months was measured. All animals were obtained from Charles-River as 5-week old healthy male Sprague-Dawley rats. Animals were given one week to acclimatize and at six weeks of age the appropriate treatment was initiated. Eight animals were fed food containing 100 mg/kg/day of NAG-Bt for eight months. Eight additional animals fed with food containing no inhibitor were used as controls. […] After four months of dosing, blood and urine samples were collected from four rats in each group.
At the end of eight months, all animals were sacrificed and their organs removed and weighed.

The nature of data set [2]: Eight-month repeat dose toxicology study in rats: urinalysis. The protocol:
as §1

Data set [3] relates to O-GlcNAc levels in cardiac tissue. The data set is described as follows: Elevation of rat cardiac O-GlcNAc levels (IV). The settings on record: rats, IV 50 mg/kg, 0 to 20 h, Western blot. The protocol:
The effect of intravenous (IV) administration of (3aR,5R,6S,7R,7aR)-2-(ethylamino)-5-(hydroxymethyl)-5,6,7,7a-tetrahydro-3aH-pyrano[3,2-d]thiazole-6,7-diol (Compound 25, hereinafter referred to as NAG-AE) on O-GlcNAc levels in cardiac tissue in Sprague-Dawley rats was measured. Animals were obtained from Charles-River as 5-week old healthy male Sprague-Dawley rats. Animals were given one week to acclimatize and at six weeks of age the appropriate treatment was initiated. Nine animals were given intravenous tail vein injections of 50 mg/kg NAG-AE; following injection, one animal was sacrificed at each of the following time points: 0, 1, 2, 4, 7, 10, 13, 16, and 20 h. In addition, one animal was given an injection of vehicle (PBS—pH 7.4) and sacrificed two hours later for use as a control. Tissues were removed from sacrificed animals as quickly as possible to minimize post-mortem delay. The hearts from each animal were immediately frozen in liquid nitrogen and stored at −80° C. until further use. Homogenization of the cardiac tissue was carried out by manual grinding followed by homogenization in cell lysis buffer (50 mM Tris, pH 8.0, 1 mM PMSF, 0.1% NP-40, 1 mM NAG-Bt) using a tissue homogenizer (IKA) at 4° C. Insoluble cell debris was removed by centrifugation at 17,900×g for 20 minutes at 4° C. and the resulting supernatant was stored at −20° C. until use. […]
On the technique in general: Immunoblotting shows a protein as a band on a membrane.

Data set [4] deals with tau phosphorylation levels in brain tissue. The data set is described as follows: Decrease of rat brain tau phosphorylation levels (oral NAG-AE). As to conditions: rats, 200 mg/kg/day in drinking water for one day. As for the experimental part: The effect of oral administration of (3aR,5R,6S,7R,7aR)-2-(ethylamino)-5-(hydroxymethyl)-5,6,7,7a-tetrahydro-3aH-pyrano[3,2-d]thiazole-6,7-diol (Compound 25, NAG-AE) on tau phosphorylation levels in brain tissue in Sprague-Dawley rats was measured. All animals were obtained from Charles-River as 5-week old healthy male Sprague-Dawley rats. Animals were given one week to acclimatize and at six weeks of age the appropriate treatment was initiated. Three animals received 200 mg/kg/day of NAG-AE in their drinking water for one day. Three additional animals received drinking water containing no NAG-AE and were used as controls. Immediately following the dosing period, all animals were sacrificed and brains were removed, stored, and processed as described in Example 29.
Western Blots. Samples were separated through 10% sodium dodecyl sulfate polyacrylamide gels (SDS-PAGE) and then transferred to nitrocellulose (Bio-Rad) membranes. Membranes were then blocked for 1 h at room temperature (RT) with 1% bovine serum albumin (BSA) in PBS containing 0.1% Tween-20 (Sigma) (PBS-T) and then subsequently probed with appropriate primary antibody delivered in 1% BSA in PBS-T for either 1 h at RT or overnight at 4° C. Membranes were then extensively washed with PBS-T, blocked again for 30 min with 1% BSA in PBS-T at RT and then probed with the appropriate HRP conjugated secondary antibody for 1 h at RT delivered in 1% BSA in PBS-T. Finally, the membranes were washed extensively and then developed with SuperSignal West Pico Chemiluminesence substrate (Pierce) and exposed to CL-XPosure Film (Pierce).
Antibodies. Mouse monoclonal α-Tau-5 which recognizes the central region of tau in a phosphorylation state independent manner was purchased from Lab Vision Corporation and used at a dilution of 1:500. Rabbit polyclonal […], and α-Tau [pS^422] recognize phosphorylated Thr-231, Ser-396, and Ser-422 respectively, and were purchased from Biosource International and used at a dilution of 1:1000. Mouse monoclonal α-O-GlcNAc (CTD110.6) which recognizes the O-GlcNAc monosaccharide modification was purchased from Covance and used at a dilution of 1:2500. Mouse monoclonal α-actin (clone AC-40) was purchased from Sigma and was used at a dilution of 1:1000.

Where [5] appears, read: rat, in vivo, po, 100 mg/kg/day.

Take `CCCC1=N[C@@H]2[C@@H](O)[C@H](O)[C@@H](CO)O[C@@H]2S1` [NAG-Bt, (3aR,5R,6S,7R,7aR)-5-(hydroxymethyl)-2-propyl-5,6,7,7a-tetrahydro-3aH-pyrano[3,2-d]thiazole-6,7-diol]: in data set [1] (setting [5]), the “body weight, food consumption, water consumption, and blood glucose levels” value was “no significant differences”; the “gross pathological abnormalities or behavioural differences” value was “No gross pathological abnormalities or behavioural differences”. The “toxicological consequences of long-term dosing” value in data set [1] (rats, oral 100 mg/kg/day, eight months) is listed as “no serious toxicological consequences”. Also, in data set [2] (setting [5]), the “Urine Bilirubin” value is “neg”, the “Urine Color” value is “Yellow”, the “Urine Crystals” value is reported as “PO4” and the “Urine Crystals Amount” value was “Many”. Moreover, in data set [2] (setting [5]), the “Urine Epith” value is “neg”, the “Urine Glucose” value is “neg”, the “Urine Gran Cast” value was “neg” and the “Urine Hyal cast” value is recorded as “neg”. Further, in data set [2] (setting [5]), the “Urine RBC Cast” value is listed as “neg” and the “Urine Urobil” value is reported as “Norm”. The “Urine Bacteria” value in data set [2] (rats dosed orally for 4 months at 100 mg/kg/day, individual treated rats) was “Mod- and neg (2×)”.

As to `CCNC1=N[C@@H]2[C@@H](O)[C@H](O)[C@@H](CO)O[C@@H]2S1` [NAG-AE, (3aR,5R,6S,7R,7aR)-2-(ethylamino)-5-(hydroxymethyl)-5,6,7,7a-tetrahydro-3aH-pyrano[3,2-d]thiazole-6,7-diol], the “O-GlcNAc levels in cardiac tissue” value in data set [3] is given as “time-dependent elevation”. Moreover, in data set [4] (Western blot), the “brain tau phosphorylation at Ser-396, Thr-231, and Ser-422” value was “reduction; also recorded: decreases”; the “global levels of O-GlcNAc in brain” value is on record as “increases”. Moreover, in data set [4] (densitometry), the “reduction of tau phosphorylation at Ser-396” value is on record as around 3.1 fold, the “reduction of tau phosphorylation at Ser-422” value is given as around 1.8 fold and the “reduction of tau phosphorylation at Thr-231” value was around 2.7 fold.
